The values below come from patent publication US20230339854A1, “Negative Allosteric Modulation of GluN3-Containing N-Methyl-D-Aspartate Receptors” (Emory University, priority 2020, published 2023).

In one test the target is T1, human GluN1^FA,TL/GluN3A receptors (Homo sapiens, UniProt Q8TCU5).
T1 construct: Human GluN3A (NP_597702.2) and rat GluN3B (NP_579842.2) were synthesized and subcloned into SP6 plasmids; expressed in transfected cells; host or cells: Xenopus laevis oocytes, cRNA injection (GluN1:GluN3 1:3)
T1 sequence (Q8TCU5 24-1115, other chains not shown): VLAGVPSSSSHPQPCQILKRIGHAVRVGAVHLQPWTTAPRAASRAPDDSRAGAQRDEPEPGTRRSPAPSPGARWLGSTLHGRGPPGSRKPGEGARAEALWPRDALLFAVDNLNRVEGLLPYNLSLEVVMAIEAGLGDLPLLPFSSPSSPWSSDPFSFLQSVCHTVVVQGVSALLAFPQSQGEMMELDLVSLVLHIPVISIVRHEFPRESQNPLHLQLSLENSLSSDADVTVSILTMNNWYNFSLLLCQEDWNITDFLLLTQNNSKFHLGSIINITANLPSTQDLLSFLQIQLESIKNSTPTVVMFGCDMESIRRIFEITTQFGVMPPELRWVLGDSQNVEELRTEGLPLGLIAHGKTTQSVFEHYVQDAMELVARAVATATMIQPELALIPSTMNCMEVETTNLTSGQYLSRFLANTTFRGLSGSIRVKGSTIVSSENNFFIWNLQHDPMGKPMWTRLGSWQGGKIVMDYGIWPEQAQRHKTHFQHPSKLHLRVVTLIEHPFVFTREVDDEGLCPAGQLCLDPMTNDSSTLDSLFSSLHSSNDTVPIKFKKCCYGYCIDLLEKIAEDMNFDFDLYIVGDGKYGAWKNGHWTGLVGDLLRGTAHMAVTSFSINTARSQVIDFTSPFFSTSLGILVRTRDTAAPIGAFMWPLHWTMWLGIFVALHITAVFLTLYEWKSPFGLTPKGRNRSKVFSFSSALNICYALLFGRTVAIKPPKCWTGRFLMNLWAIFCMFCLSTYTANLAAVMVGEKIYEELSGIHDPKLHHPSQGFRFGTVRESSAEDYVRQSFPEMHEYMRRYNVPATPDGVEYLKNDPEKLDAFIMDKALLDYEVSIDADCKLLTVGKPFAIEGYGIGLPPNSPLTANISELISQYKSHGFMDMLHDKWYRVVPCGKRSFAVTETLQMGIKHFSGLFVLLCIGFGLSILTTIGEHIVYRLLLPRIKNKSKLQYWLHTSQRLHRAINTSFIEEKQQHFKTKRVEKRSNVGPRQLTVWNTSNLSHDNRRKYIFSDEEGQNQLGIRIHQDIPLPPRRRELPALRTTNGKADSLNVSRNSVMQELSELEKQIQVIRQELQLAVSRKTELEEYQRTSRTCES
Kind of test: Two-electrode voltage-clamp recordings of GluN1^FA,TL/GluN3A receptors in Xenopus oocytes. The test is classed as cell-based. The note with it: 30 μM drug. An excerpt:
cDNA encoding human wild-type (WT) GluN1-1a (GenBank accession numbers NP_015566, hereafter GluN1) and rat GluN1-1a (NP_058706.1) were synthesized and subcloned into pGEMHE plasmid; some experiments used the rat splice variant GluN1-4a (NP_001257531.1). Human GluN3A (NP_597702.2) and rat GluN3B (NP_579842.2) were synthesized and subcloned into SP6 plasmids. For most experiments, human GluN1 was co-expressed with human GluN3A, except for mutagenesis experiments where rat GluN1 was co-expressed with human GluN3A. Rat GluN1-4a was always expressed with rat GluN3B.
Defolliculated Xenopus laevis oocytes (stage V-VI) were obtained from Ecocyte BioScience (Austin, Texas), or prepared from commercially available Xenopus ovaries (Xenopus 1, Dexter, MI) as previously described (Hansen, et al., Mol. Pharmacol., 2013). A Drummond Nanoject II (Broomall, PA) was used to inject oocytes with cRNAs encoding GluN1 and GluN3 at a 1:3 ratio in RNase-free water. The cRNA was diluted as needed to give responses with amplitudes ranging between 200-2000 nA (0.2-10 ng total cRNA). Following cRNA injection, the oocytes were stored at 15-19° C. in Barth's solution that contained (in mM) 88 NaCl, 2.4 NaHCO3, 1 KCl, 0.33 Ca(NO3)2, 0.41 CaCl2), 0.82 MgSO4, and 5 Tris-HCl (pH 7.4 with NaOH), supplemented with 1 μg/ml streptomycin (Invitrogen, Carlsbad, CA) and 100 μg/ml gentamicin (Fisher Scientific, Pittsburgh, PA). Recordings were performed 2-5 days following cRNA microinjection at room temperature (23° C.) using a two-electrode voltage-clamp amplifier (OC725, Warner Instrument, Hamilton, CT). The signal was low-pass filtered at 10-20 Hz (4-pole, −3 dB Bessel) and digitized at the Nyquist rate using PCI-6025E or USB-6212 BNC data acquisition boards (National Instruments, Austin, TX) using EasyOocyte (http://www.easyoocyte.io/). Oocytes were placed in a custom-made chamber and continuously perfused (2.5 ml/min) with oocyte recording solution containing (in mM) 90 NaCl, 1 KCl, 10 HEPES, 0.5-1.0 BaCl2, and 0.01 EDTA (pH 7.4 with NaOH). Solutions were applied by gravity, and solution exchange was controlled through a rotary valve (Hamilton, Reno, NV). Recording electrodes were filled with 0.3-3.0 M KCl, and current responses were recorded at a holding potential of −40 mV.
Response (%)=(100−minimum)/(1+([concentration]/IC50)^nH)+minimum (2) • where nH is the Hill slope, IC50 is the concentration that produces a half-maximal effect, and minimum is the degree of residual inhibition at a saturating concentration of the negative allosteric modulator.
The afore-referenced compounds were screened in the same assay as EU1180-438 to determine their effects on hGluN1^FA,TL/hGluN3A receptors. Selected compounds that inhibited by more than 20% at the concentration at which they were initially evaluated (either 10 or 30 μM) were analyzed further, and a dose-response curve was generated to determine their IC50 values.
Turning to `COc1ccc(OCC(c2ccc(OC)cc2)N2Cc3ccc(Cl)cc3C2=O)cc1` (stereo not drawn) [EU1180-516, 6-Chloro-2-(2-(4-methoxyphenoxy)-1-(4-methoxyphenyl)ethyl)isoindolin-1l-one], the “hGluN1^FA,TL/hGluN3A (100 × Idrug/Icontrol at 30 μM drug)” value amounted to 44%.

Staying with this test, now noted: hGluN1^FA,TL/hGluN3A; read-out: IC50.
`COc1cc(F)c(C(COc2cccc(C)n2)N2Cc3ccc(Cl)cc3C2=O)c(F)c1` (stereo not drawn) [EU1180-611, 6-Chloro-2-(1-(2,6-difluoro-4-methoxyphenyl)-2-((6-methylpyridin-2-yl)oxy)ethyl)isoindolin-1-one]: the IC50 stood at 63 µM.

The same test, now with this note: read-out: hGluN1^FA,TL/hGluN3A (100 × Idrug/Icontrol at 30 μM drug).
On to `CCOc1ccc(OCC(c2ccc(OC(C)C)cc2)N2Cc3cc(F)ccc3C2=O)cc1` (stereo not drawn) [EU1180-591, 5-fluoro-2-(2-(4-ethoxyphenoxy)-1-(4-isopropoxyphenyl)ethyl)isoindolin-1-one], for which the remaining activity at 30 µM was 90%.
Still for that read-out and setting: the figure for `COc1cc(F)c(C(COc2cccc(C)n2)N2Cc3cc(Cl)ccc3C2=O)c(F)c1` (stereo not drawn) [EU1180-610, 5-Chloro-2-(1-(2,6-difluoro-4-methoxyphenyl)-2-((6-methylpyridin-2-yl)oxy)ethyl)isoindolin-1-one] is 76%; for `COc1cc(F)c(C(COc2cccc(C)n2)N2Cc3ccc(C(F)(F)F)cc3C2=O)c(F)c1` (stereo not drawn) [EU1180-609, 2-(1-(2,6-Difluoro-4-methoxyphenyl)-2-((6-methylpyridin-2-yl)oxy)ethyl)-6-(trifluoromethyl)isoindolin-1-one] it is 81%.
Still for that read-out and setting: the figure for `CC(C)Oc1ccc(C(COc2ccc(C(F)(F)F)cc2)N2Cc3cc(Cl)ccc3C2=O)cc1` (stereo not drawn) [EU1180-574, 5-chloro-2-(1-(4-isopropoxyphenyl)-2-(4-(trifluoromethyl)phenoxy)ethyl)isoindolin-1-one] is 91%; for `COc1ccc(OCC(c2ccc(OC(C)C)cc2)N2Cc3cc(Br)ccc3C2=O)cc1` (stereo not drawn) [EU1180-563, 5-bromo-2-(1-(4-isopropoxyphenyl)-2-(4-methoxyphenoxy)ethyl)isoindolin-1-one] it is 98%; for `COc1cc(F)c(C(COc2cccc(C)n2)N2Cc3cc(Br)ccc3C2=O)c(F)c1` (stereo not drawn) [EU1180-612, 5-Bromo-2-(1-(2,6-difluoro-4-methoxyphenyl)-2-((6-methylpyridin-2-yl)oxy)ethyl)isoindolin-1-one] it is 79%.
Same read-out and setting: the figure for `COc1ccc(OCC(c2c(F)cc(OC)cc2F)N2Cc3ccc(F)cc3C2=O)cc1` (stereo not drawn) [EU1180-552, 2-(1-(2,6-Difluoro-4-methoxyphenyl)-2-(4-methoxyphenoxy)ethyl)-6-fluoroisoindolin-1-one] is 70%; for `COc1ccc(OCC(c2ccc(OC(C)C)cc2)N2Cc3ccc(Cl)cc3C2=O)cc1` (stereo not drawn) [EU1180-564, 6-chloro-2-(1-(4-isopropoxyphenyl)-2-(4-methoxyphenoxy)ethyl)isoindolin-1-one] it is 96%; for `COc1ccc(OCC(c2ccc(OC(C)C)cc2)N2Cc3ccc(F)cc3C2=O)cc1` (stereo not drawn) [EU1180-560, 6-fluoro-2-(1-(4-isopropoxyphenyl)-2-(4-methoxyphenoxy)ethyl)isoindolin-1-one] it is 23%.
For the molecule `COc1ccc(C(COc2cccc(C)n2)N2Cc3cc(Cl)ccc3C2=O)c(F)c1` (stereo not drawn) [EU1180-604, 5-Chloro-2-(1-(2-fluoro-4-methoxyphenyl)-2-((6-methylpyridin-2-yl)oxy)ethyl)isoindolin-1-one], the remaining activity at 30 µM stood at 81%.
Still for that read-out and setting: the figure for `COc1ccc(OCC(c2ccc(OC)cc2F)N2Cc3ccc(Br)cc3C2=O)cc1` (stereo not drawn) [EU1180-535, 6-Bromo-2-(1-(2-fluoro-4-methoxyphenyl)-2-(4-methoxyphenoxy)ethyl)isoindolin-1-one] is 83%.
Same read-out and setting: to `CCOc1ccc(OCC(c2ccc(OC(C)C)cc2)N2Cc3ccc(Br)cc3C2=O)cc1` (stereo not drawn) [EU1180-592, 6-bromo-2-(2-(4-ethoxyphenoxy)-1-(4-isopropoxyphenyl)ethyl)isoindolin-1-one] belongs 78%; to `COc1ccc(OCC(c2ccc(OC(C)C)cc2)N2Cc3cc(Cl)ccc3C2=O)cc1` (stereo not drawn) [EU1180-559, 5-chloro-2-(1-(4-isopropoxyphenyl)-2-(4-methoxyphenoxy)ethyl)isoindolin-1-one], 96%; to `COc1ccc(OCC(c2ccc(OC)cc2F)N2Cc3ccccc3C2=O)cc1` (stereo not drawn) [EU1180-530, 2-(1-(2-Fluoro-4-methoxyphenyl)-2-(4-methoxyphenoxy)ethyl)isoindolin-1-one], 41%.
Still for that read-out and setting: to `COc1ccc(C(COc2cccc(C)n2)N2Cc3ccc(C(F)(F)F)cc3C2=O)c(F)c1` (stereo not drawn) [EU1180-603, 2-(1-(2-Fluoro-4-methoxyphenyl)-2-((6-methylpyridin-2-yl)oxy)ethyl)-6-(trifluoromethyl)isoindolin-1-one] belongs 84%; to `COc1ccc(OCC(c2c(F)cc(OC)cc2F)N2Cc3cc(Br)ccc3C2=O)cc1` (stereo not drawn) [EU1180-549, 5-Bromo-2-(1-(2,6-difluoro-4-methoxyphenyl)-2-(4-methoxyphenoxy)ethyl)isoindolin-1-one], 95%.
On to `COc1ccc(OCC(c2ccc(OC)c(OC)c2)N2Cc3cc(F)ccc3C2=O)cc1` (stereo not drawn) [EU1180-528, 2-(1-(3,4-Dimethoxyphenyl)-2-(4-methoxyphenoxy)ethyl)-5-fluoroisoindolin-1-one], for which the remaining activity at 30 µM worked out at 94%.
Still for that read-out and setting: the figure for `CC(C)Oc1ccc(C(COc2ccc(OC(F)(F)F)cc2)N2Cc3cc(F)ccc3C2=O)cc1` (stereo not drawn) [EU1180-544, 5-fluoro-2-(1-(4-isopropoxyphenyl)-2-(4-(trifluoromethoxy)phenoxy)ethyl)isoindolin-1-one] is 98%; for `CC(C)Oc1ccc(C(COc2ccc(C(F)(F)F)cc2)N2Cc3ccc(Cl)cc3C2=O)cc1` (stereo not drawn) [EU1180-573, 6-chloro-2-(1-(4-isopropoxyphenyl)-2-(4-(trifluoromethyl)phenoxy)ethyl)isoindolin-1-one] it is 100%; for `Cc1cccc(OCC(c2ccc(OC(C)C)cc2)N2Cc3ccc(F)cc3C2=O)n1` (stereo not drawn) [EU1180-512, 6-fluoro-2-(1-(4-isopropoxyphenyl)-2-((6-methylpyridin-2-yl)oxy)ethyl)isoindolin-1-one] it is 36%.
The same measure, in the same setting: to `COc1ccc(OCC(c2ccc(OC)cc2F)N2Cc3ccc(Cl)cc3C2=O)cc1` (stereo not drawn) [EU1180-533, 6-Chloro-2-(1-(2-fluoro-4-methoxyphenyl)-2-(4-methoxyphenoxy)ethyl)isoindolin-1-one] belongs 49%; to `COc1ccc(OCC(c2ccc(OC)c(OC)c2)N2Cc3ccc(Br)cc3C2=O)cc1` (stereo not drawn) [EU1180-527, 6-Bromo-2-(1-(3,4-dimethoxyphenyl)-2-(4-methoxyphenoxy)ethyl)isoindolin-1-one], 94%; to `Cc1cccc(OCC(c2ccc(OC(C)C)cc2)N2Cc3cc(Br)ccc3C2=O)n1` (stereo not drawn) [EU1180-515, 5-bromo-2-(1-(4-isopropoxyphenyl)-2-((6-methylpyridin-2-yl)oxy)ethyl)isoindolin-1-one], 100%.
Still for that read-out and setting: the figure for `CC(C)Oc1ccc(C(COc2ccc(C(F)(F)F)cc2)N2Cc3cc(Br)ccc3C2=O)cc1` (stereo not drawn) [EU1180-578, 5-bromo-2-(1-(4-isopropoxyphenyl)-2-(4-(trifluoromethyl)phenoxy)ethyl)isoindolin-1-one] is 118%.
Turning to `COc1cc(F)c(C(COc2cccc(C)n2)N2Cc3ccc(Cl)cc3C2=O)c(F)c1` (stereo not drawn) [EU1180-611, 6-Chloro-2-(1-(2,6-difluoro-4-methoxyphenyl)-2-((6-methylpyridin-2-yl)oxy)ethyl)isoindolin-1-one], the remaining activity at 30 µM is 57%.
